Laboratory results reported in ChEMBL document CHEMBL1134002, “N-Aminoindoline derivatives as inhibitors of 5-lipoxygenase” (Bioorg Med Chem Lett, 2001).

What was measured:
[1] = biological target: T1, Polyunsaturated fatty acid 5-lipoxygenase (Rattus norvegicus) (UniProt P12527); assay: In vitro percent inhibition against 5-lipoxygenase in RBL-1 cells at 1 uM concentration; assay type: cell-based
T1 sequence (whole entry): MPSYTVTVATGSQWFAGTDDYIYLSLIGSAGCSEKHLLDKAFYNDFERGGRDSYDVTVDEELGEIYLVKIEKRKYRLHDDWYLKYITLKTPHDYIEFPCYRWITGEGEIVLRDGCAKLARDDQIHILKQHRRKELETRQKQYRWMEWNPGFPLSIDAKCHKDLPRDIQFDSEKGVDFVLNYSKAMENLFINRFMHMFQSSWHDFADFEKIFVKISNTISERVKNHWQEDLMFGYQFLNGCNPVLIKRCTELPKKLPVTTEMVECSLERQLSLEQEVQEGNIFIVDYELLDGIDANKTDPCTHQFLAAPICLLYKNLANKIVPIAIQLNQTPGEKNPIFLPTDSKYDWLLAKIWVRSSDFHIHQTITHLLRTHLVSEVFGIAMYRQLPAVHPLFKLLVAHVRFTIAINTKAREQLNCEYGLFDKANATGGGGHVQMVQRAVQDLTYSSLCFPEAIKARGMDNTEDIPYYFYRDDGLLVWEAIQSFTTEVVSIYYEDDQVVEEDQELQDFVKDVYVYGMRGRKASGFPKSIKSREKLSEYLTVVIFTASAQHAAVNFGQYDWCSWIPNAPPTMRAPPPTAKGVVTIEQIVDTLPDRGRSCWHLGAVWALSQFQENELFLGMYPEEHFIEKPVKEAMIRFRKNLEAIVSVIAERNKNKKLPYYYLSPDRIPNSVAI

[2] = biological target: T1, Polyunsaturated fatty acid 5-lipoxygenase (Rattus norvegicus); assay: In vitro percent inhibition against 5-lipoxygenase in RBL-1 cells at 10 uM concentration; assay type: cell-based
[3] = biological target: T2, Polyunsaturated fatty acid 5-lipoxygenase (Rattus norvegicus, UniProt P12527); assay: In vitro inhibitory concentration against 5-lipoxygenase in RBL-1 cells; assay type: cell-based
T2 sequence (P12527 whole entry): T1 sequence (whole entry)

[4] = biological target: T1, Polyunsaturated fatty acid 5-lipoxygenase (Rattus norvegicus); conditions: RBL-1; 10 uM

Which inhibition [1] does the source give for `CCCCCCCCCCNC(=O)CCC/C=C/c1ccc(C(=O)NN2CCc3ccccc32)cc1` here?
The inhibition was 57%.

Which inhibition [2] does the source give for `O=C(O)CCC/C=C/c1ccc(C(=O)NN2CCc3ccccc32)cc1` here?
The inhibition was 18%.

For `O=C(NN1CCc2cc(O)ccc21)c1ccccc1`, which inhibition [2] is on record?
The inhibition was 80%.

And the IC50 [3]?
The IC50 was 3.47 µM.

How did the inhibition [4] turn out when `CC(Cc1ccc(O)c(O)c1)C(C)Cc1ccc(O)c(O)c1` (centres undefined) was run?
The inhibition was 73%.

With `CN(NS(=O)(=O)c1ccccc1)c1ccccc1` as the compound, how does the inhibition [2] read?
Its inhibition is 53%.

With `O=C(NN1CCc2ccccc21)c1ccccc1` as the compound, how does the inhibition [2] read?
The inhibition was 15%.

Which inhibition [2] does the source give for `CN(NC(=O)c1ccccc1)c1ccccc1` here?
The inhibition was 28%.

`COc1ccc2c(c1)CCN2NC(=O)c1ccccc1` was tested. Which inhibition [2] did it give?
The inhibition was 20%.
